One may read the mass density as mass per unit of volume. Broadly, the refractive index is a measure of how strongly the sample bends light.

± gives the expanded uncertainty stated by the source.

We go through 2 molecules from the NIST ThermoML archive (doi:10.1016/j.jct.2013.01.033).

The conditions of data set [1]: 101.33 kPa, Liquid, Vibrating tube method.
Data set [2] in a line: refractive index (Na D-line) (dimensionless). The following applies: 293.15 K; 101.33 kPa; Liquid; Standard Abbe refractometry.

Turning to `CCCC[N+]1(C)CCCC1.N#CC(=C=[N-])C#N` [1-butyl-1-methylpyrrolidinium tricyanomethanide], the mass density came out at 1006.71 ± 0.85 kg/m3 in data set [1] (298.15 K); 1000.55 ± 0.84 kg/m3 in data set [1] (308.15 K); 994.44 ± 0.83 kg/m3 in data set [1] (318.15 K); 988.41 ± 0.82 kg/m3 in data set [1] (328.15 K); 982.44 ± 0.82 kg/m3 in data set [1] (338.15 K); 976.52 ± 0.81 kg/m3 in data set [1] (348.15 K).
As to `CCCO` [propan-1-ol], the refractive index in data set [2] was found to be 1.38432 ± 0.0007.
